Values quoted from earlier work in paper PMC11902296, “cAmbly: A non-toxic cell-penetrating peptide derived from Amblyomin-X with targeted delivery to mitochondrial and cytoplasmic proteins” (PLOS One, 2025).
No end group written: not given here.

Columns and labels:
tumor cells [1] = settings: isolated domain of Amblyomin-X
Text: Amblyomin-X is a promising antitumoral protein that requires cellular internalization to exert its activity.

tumor cells [2] = settings: isolated domain of Amblyomin-X; remark: listed apart in the source
Text: One promising candidate has emerged from Amblyomin-X, a Kunitz-type protease inhibitor derived from the salivary glands of the tick Amblyomma sculptum. […] Structurally, Amblyomin-X consists of two distinct regions: a non-permeant Kunitz-type domain located at the N-terminus, which mediates the protein’s cytotoxic activity, and a disordered C-terminal tail.

Sequence: EEQTHFHFESPKLISFKVQDYWILNDIMKKNLTGISLKSEEEDADSGEID [cAmbly]
- ability to enter cells (tumor cells [1]): can penetrate cells
- cytotoxic activity (tumor cells [2]): lacks cytotoxic activity
